Data: US11236086B2, “Substituted pyrrolopyridines as inhibitors of activin receptor-like kinase” (BLUEPRINT MEDICINES CORPORATION, priority 2017, dated 2022)

Assays:
[1] = biological target: T1, ALK2R206H (mutant ALK2, N-terminally tagged with GST) (Homo sapiens, UniProt Q04771, R206H); experiment: ALK binding assay (LANTHASCREEN TR-FRET competitive binding, displacement of Kinase Tracer 178); conditions: read-out: Binding Assay (IC50 class)
T1 construct: purchased Carna Bioscience or ThermoFisher 09-148 or PV6232
T1 sequence (Q04771 21-509 R206H): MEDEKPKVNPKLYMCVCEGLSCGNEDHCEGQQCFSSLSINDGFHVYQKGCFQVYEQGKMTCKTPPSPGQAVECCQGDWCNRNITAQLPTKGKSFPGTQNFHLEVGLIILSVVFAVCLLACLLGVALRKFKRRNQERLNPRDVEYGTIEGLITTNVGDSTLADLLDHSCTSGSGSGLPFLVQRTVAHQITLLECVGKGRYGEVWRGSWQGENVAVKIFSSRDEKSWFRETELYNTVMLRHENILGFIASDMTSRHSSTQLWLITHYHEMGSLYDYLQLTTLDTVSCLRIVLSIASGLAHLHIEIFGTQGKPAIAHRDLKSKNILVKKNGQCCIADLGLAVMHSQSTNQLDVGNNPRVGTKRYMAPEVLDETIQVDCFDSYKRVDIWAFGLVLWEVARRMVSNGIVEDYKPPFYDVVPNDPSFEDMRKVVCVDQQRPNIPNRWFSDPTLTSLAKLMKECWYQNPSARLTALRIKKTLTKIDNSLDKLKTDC
Summary of the method: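 GST-tagged ALK2 R206H (2-5 nM) mixed with Eu-anti-GST antibody (4-10 nM), Kinase Tracer 178 (50 nM, near its Kd) and compound titration (1% DMSO) in Kinase Buffer A, 30 min at room temperature. Tracer displacement read as TR-FRET ratio, normalized to controls; IC50 from 4-parameter fit.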

human ALK2 R206H = biological target: T2, human ALK2 R206H (Homo sapiens, UniProt Q04771, R206H); experiment: Cell-based ALK2-R206H cell activity assay (Smad1-Ser463/Ser465 phosphorylation by AlphaLISA in HEK293-ALK2-R206H cells); conditions: phospho-Smad1 AlphaLISA, read-out: Cell Line (Cell Assay, IC50 class)
T2 construct: expressed in transfected cells; host or cells: HEK293 (ATCC CRL1573), lentivirus transduction, blasticidin selection
T2 sequence (Q04771 21-509 R206H): T1 sequence (Q04771 21-509 R206H)
Method: Example 11. Cell-Based ALK2-R206H Cell Activity Assay
A HEK293 (ATCC, Cat No. CRL1573) based stable cell line expressing human ALK2 R206H cDNA (synthesized by GeneScript, Piscataway, N.J.) and a FLAG tag at the C-terminus was generated by lentivirus transduction and subsequent blasticidin (Life Technologies, Cat No. A1113902) selection at 10 μg/ml for >2 wks. This cell line was named HEK293-ALK2-R206H.
B. Measurement of Smad1-Ser463/Ser465 Phosphorylation by AlphaLISA
HEK293-ALK2-R206H cells were grown, harvested, and then resuspended in serum-free, phenol red-free DMEM high glucose media (Life Technologies, Cat No. 31053). The media also contained 50 units/ml penicillin and 50 μg/ml streptomycin (Life Technologies, Cat. No. 15070-063). HEK293-ALK2-R206H cells were then plated in white opaque 384-wells microplates (2×10^4/well) (OptiPlate-384, PerkinElmer, Waltham, Mass., Cat No. 6007299) overnight (>16h) at 37° C. 5% CO2 for use in the assay.
Test compounds were first diluted to 4 mM or 0.4 mM and then serially diluted 3-fold into 10 different concentrations using DMSO. Each concentration of compound was further diluted 40-fold with phenol red-free DMEM (Life Technologies, Cat No. 31053). 2 μl of the diluted compounds were then dispensed into the HEK293-ALK2-R206H cell-containing wells of the microplates in duplicates. In this way, each compound was tested in 10 doses (3-fold serial dilution with the top concentration being 10 μM or 1 μM). Liquid handling was achieved using a Bravo Automated Liquid Handling Platform (Agilent Technologies). DMSO without compound was used as a negative control. The positive control was 1 μM LDN193189, a known bone morphogenetic protein (BMP inhibitor).
After 2-3 hours of incubation with test compound or control, the cells were lysed and signal was developed using ALPHASCREEN® SUREFIRE® SMAD1 (p-Ser463/465) cellular kinase assay kit (PerkinElmer, Cat No. TGRSM1S10K) following the manufacturer's recommended protocol. The microplates were read using Perkin Elmer ENVISION® plate reader (emission […]). The signal reflected the level of phospho-Ser/463/465-Smad1 in the lysate. The raw data were plotted using the DMSO negative and LDN193189 positive controls as the 0% and 100% inhibition, respectively. The 10-point dose response curve was used to calculate the IC50 values.
The results of this assay are shown in Table 3 in the column labeled “Cell Assay” wherein “A” represents an IC50 of less than or equal to 100 nM; “B” an IC50 of greater than 100 nM and less than or equal to 500 nM; “C” an IC50 of greater than 500 nM. Blank values in the table indicate that the particular compound was not tested in this assay.

| Compound | IC50 [1] [nM] | IC50 (human ALK2 R206H) [nM] |
| --- | --- | --- |
| CCC(C)OC(=O)N1CCN(c2ccnc3[nH]c(-c4cnn(C)c4)cc23)CC1 (stereo not shown) [Compound 98] | ≤ 10 | 100 to 500 |
| C[C@@H](F)COC(=O)N1CCN(c2ccnc3[nH]c(-c4cnn(C)c4)cc23)CC1 [Compound 118] | ≤ 10 | 100 to 500 |
| Cn1cnc(-c2cc3c(N4CCN(C(=O)OCC(F)F)CC4)ccnc3[nH]2)c1 [Compound 124] | ≤ 10 | ≤ 100 |
| CCOC(=O)N1CCN(c2ccnc3[nH]c(-c4cnn(C(F)F)c4)cc23)CC1 [Compound 125] | ≤ 10 | ≤ 100 |
| N#Cc1c(-c2nc3c(s2)COCC3)[nH]c2nccc(N3CCN(C(=O)OC4COC4)CC3)c12 [Compound 434] | ≤ 10 | ≤ 100 |
| Cc1nc(-c2cc3c(N4CCN(C(=O)O[C@H]5C[C@H](F)C5)CC4)ccnc3[nH]2)cs1 [Compound 260] | ≤ 10 | ≤ 100 |
| N#Cc1c(-c2nc3c(s2)COCC3)[nH]c2nccc(N3CCN(C(=O)OCC(F)F)CC3)c12 [Compound 440] | ≤ 10 | ≤ 100 |
| COc1cccc(-c2cc3c(N4CCN(C(=O)C5CC5)CC4)ccnc3[nH]2)c1 [Compound 59] | ≤ 10 | 100 to 500 |
| CN(C)C(=O)COc1ccc(-c2cc3c(N4CCN(C(=O)C5CC5)CC4)ccnc3[nH]2)cc1 [Compound 388] | ≤ 10 | 100 to 500 |
| CCN1CCN(c2ccc(-c3cc4c(N5CCN(C(=O)C6CCC6)CC5)ccnc4[nH]3)cc2)CC1 [Compound 439] | ≤ 10 | ≤ 100 |
| CCS(=O)(=O)c1ccc(-c2cc3c(N4CCN(C(=O)C5CC5)CC4)ccnc3[nH]2)cc1 [Compound 362] | ≤ 10 | ≤ 100 |
| O=C(C1CC1)N1CCN(c2ccnc3[nH]c(-c4ccc(C5(F)CCCNC5)cc4)cc23)CC1 (stereo not shown) [Compound 390] | ≤ 10 | ≤ 100 |
| Cn1cc(-c2cc3c(N4CCN(C(=O)OCCC(F)(F)F)CC4)ccnc3[nH]2)cn1 [Compound 292] | ≤ 10 | 100 to 500 |
| O=C(OC1COC1)N1CCN(c2ccnc3[nH]c(-c4ccc(C5(O)CCOCC5)cc4)cc23)CC1 [Compound 445] | ≤ 10 | ≤ 100 |
| CC(C)Oc1ccc(-c2cc3c(N4CCN(C(=O)C5CC5)CC4)ccnc3[nH]2)cc1 [Compound 194] | ≤ 10 | ≤ 100 |
| CCOC(=O)N1CCN(c2ccnc3[nH]c(-c4cnn(C)c4CC)cc23)CC1 [Compound 100] | ≤ 10 | 100 to 500 |
| COc1ccc(-c2cc3c(N4CCN(C(=O)C5CC5)CC4)ccnc3[nH]2)cc1 [Compound 60] | ≤ 10 | 100 to 500 |
| CCOC(=O)N1CCN(c2ccnc3[nH]c(-c4ncc(C(C)C)s4)cc23)CC1 [Compound 177] | ≤ 10 | ≤ 100 |
| O=C(C1CC1)N1CCN(c2ccnc3[nH]c(-c4cnn(C5CCCC5)c4)cc23)CC1 [Compound 197] | ≤ 10 | ≤ 100 |
| CC(C)OC(=O)N1CCN(c2ccnc3[nH]c(-c4cnn(C)c4)c(C#N)c23)CC1 [Compound 137] | ≤ 10 | ≤ 100 |
| O=C(OC1COC1)N1CCN(c2ccnc3[nH]c(-c4ccc(C5=CCOCC5)cc4)cc23)CC1 [Compound 425] | ≤ 10 | ≤ 100 |
| N#CC1(c2ccc(-c3cc4c(N5CCN(C(=O)C6CC6)CC5)ccnc4[nH]3)c(F)c2)CC1 [Compound 322] | ≤ 10 | ≤ 100 |
| O=C(C1CC1)N1CCN(c2ccnc3[nH]c(-c4ccc(C5CCOC5)cc4)cc23)CC1 (stereo not shown) [Compound 270] | ≤ 10 | ≤ 100 |

Next, values leading:

| IC50 [1] [nM] | IC50 (human ALK2 R206H) [nM] | Compound |
| --- | --- | --- |
| ≤ 10 | 100 to 500 | Cc1cc(-c2cc3c(N4CCN(C(=O)OC5COC5)CC4)ccnc3[nH]2)on1 [Compound 104] |
| 10 to 50 | > 500 | O=C(OC1COC1)N1CCN(c2ccnc3[nH]c(-c4cn[nH]c4C4CC4)cc23)CC1 [Compound 220] |
| ≤ 10 | ≤ 100 | CC(C)c1cnc(-c2cc3c(N4CCN(C(=O)OC5COC5)CC4)ccnc3[nH]2)s1 [Compound 316] |
| ≤ 10 | ≤ 100 | Cn1cc(-c2cc3c(N4CCN(C(=O)O[C@H]5C[C@H](F)C5)CC4)ccnc3[nH]2)cn1 [Compound 162] |
| ≤ 10 | ≤ 100 | CO[C@H]1C[C@H](OC(=O)N2CCN(c3ccnc4[nH]c(-c5cnn(C)c5)cc34)CC2)C1 [Compound 232] |
| ≤ 10 | 100 to 500 | Cc1nn(C)cc1-c1cc2c(N3CCN(C(=O)[C@H]4CC[C@H](C#N)CC4)CC3)ccnc2[nH]1 [Compound 333] |
| ≤ 10 | ≤ 100 | O=C(OC1COC1)N1CCN(c2ccnc3[nH]c(-c4cnn(C(F)F)c4)cc23)CC1 [Compound 279] |
| ≤ 10 | ≤ 100 | CCn1cnc(-c2cc3c(N4CCN(C(=O)OC5COC5)CC4)ccnc3[nH]2)c1 [Compound 146] |
| ≤ 10 | 100 to 500 | Cc1nc(-c2cc3c(N4CCN(C(=O)OC5COC5)CC4)ccnc3[nH]2)co1 [Compound 102] |
| ≤ 10 | ≤ 100 | Cn1cnc(-c2cc3c(N4CCN(C(=O)OC5CC(F)(F)C5)CC4)ccnc3[nH]2)c1 [Compound 269] |
| ≤ 10 | 100 to 500 | Cc1nn(C)cc1-c1cc2c(N3CCN(C(=O)OC4COC4)CC3)ccnc2[nH]1 [Compound 151] |
| ≤ 10 | ≤ 100 | Cn1cc(-c2cc3c(N4CCN(C(=O)OC5CC(F)(F)C5)CC4)ccnc3[nH]2)cn1 [Compound 266] |
| ≤ 10 | 100 to 500 | Cn1cc(-c2[nH]c3nccc(N4CCN(C(=O)OC5COC5)CC4)c3c2F)cn1 [Compound 178] |
| ≤ 10 | ≤ 100 | CCc1nc(-c2cc3c(N4CCN(C(=O)OC5COC5)CC4)ccnc3[nH]2)cs1 [Compound 248] |
| ≤ 10 | ≤ 100 | Cc1nc(-c2[nH]c3nccc(N4CCN(C(=O)OC5COC5)CC4)c3c2Cl)cn1C [Compound 331] |
| ≤ 10 | ≤ 100 | O=C(OC1COC1)N1CCN(c2ccnc3[nH]c(-c4cn(C5CCOCC5)cn4)cc23)CC1 [Compound 403] |
| ≤ 10 | ≤ 100 | N#Cc1ccc(-c2cc3c(N4CCN(C(=O)OC5COC5)CC4)ccnc3[nH]2)cc1 [Compound 188] |
| ≤ 10 | ≤ 100 | CC(C)(C#N)c1ccc(-c2cc3c(N4CCN(C(=O)OC5COC5)CC4)ccnc3[nH]2)nc1 [Compound 383] |
| ≤ 10 | ≤ 100 | Cc1nc(-c2cc3c(N4CCN(C(=O)OC5CC5)CC4)ccnc3[nH]2)cn1C [Compound 75] |
| ≤ 10 | 100 to 500 | CC(C)(O)c1nc(-c2cc3c(N4CCN(C(=O)OC5COC5)CC4)ccnc3[nH]2)cs1 [Compound 378] |
| ≤ 10 | 100 to 500 | Cn1cc(-c2[nH]c3nccc(N4CCN(C(=O)OC5COC5)CC4)c3c2Br)cn1 [Compound 426] |
